From patent US5594012A, “Amino acid derivatives and anti-active oxygen agents” (Ajinomoto Co., Inc., priority 1992, dated 1997) come the findings set out here.

Structures can show the parent of a compound that is named as a salt.

Data set [1] deals with lipid peroxidation in homogenate of murine swiss 3T3 cells. As to the kind of experiment: Inhibitory effects on UV-induced lipid peroxidation (homogenate of murine swiss 3T3 cells). In kind it is biochemical. As to conditions: 1 mM test compound; UVB 0.4 mW/cm^2, 90 min; pH 7.2 to 7.8; TBA, 535 nm. The procedure:
Test for Inhibitory Effects on UV-induced Lipid Peroxidation
The test was carried out on the basis of the methods described in Biochim. Biophys. […] Namely, 12 μl of an aqueous sodium hydroxide solution of each of the test compounds shown in Table 5 below was added to 1.2 ml of a homogenate of murine swiss 3T3 cells (i.e. a kind of murine skin cells) prepared by a conventional method in 20 mM phosphate buffer (protein content: 1.5 to 1.8 mg/ml). The final concentration of the test compounds was adjusted to be 1 mM and the pH of the solution was adjusted to 7.2 to 7.8. If test compounds were not soluble in an aqueous sodium hydroxide solution, they were dissolved in N,N-dimethyl sulfoxide (DMSO).
This solution (1.1 ml) was irradiated with UV rays (0.4 mW/cm^2, 90 min.) using a UVB lamp "EB-280C/J" (manufactured by Spectronics). To an aliquot (1.0 ml) of this solution were successively added 0.2 ml of an aqueous solution of sodium dodecyl sulfate and 1.0 ml of an aqueous solution of thiobarbituric acid/trichloroacetic acid/hydrochloric acid, and the mixed solution was heated in a boiling water bath for 15 minutes. After ice-cooling, the solution was extracted with 1.0 ml of 1-butanol to prepare a sample for determining peroxide lipid as absorbance at a wavelength of 535 nm using a spectrophotometer "Model 320" (manufactured by Hitachi).
(§1) [formula] A1 : Absorbance when a test compound was added. A2 : Absorbance when a test compound was not added.
A3 : Absorbance when a test compound was not added and UV rays were not irradiated.

Data set [2] deals with hydroxyl radical. As to the kind of experiment: Inhibitory effects on hydroxyl radical formation (1) (xanthine/xanthine oxidase, deoxyribose). The format is biochemical. As to conditions: 360 μM test compound; 36 μM ammonium iron (III) sulphate; xanthine oxidase 0.7 unit/ml; 37° C., 15 minutes; pH 7.4 to 7.8. The procedure:
Test for Inhibitory Effects on Hydroxyl Radical Formation (1)
The test was carried out in accordance with the method described in FEBS Letters, Vol. 128, page 347, 1981. Namely, to 1.1 ml of a solution of 54 mM sodium chloride in 9 mM phosphate buffer (hereinafter referred to as "PBS-I") were successively added 140 μl of a solution of each of the test compounds shown in Table 6 below in PBS-1, […] of a 1 mM solution of ammonium iron (III) sulphate in hydrochloric acid, 140 μl of a solution of xanthine (manufactured by Tokyo Kasei Co.) in PBS-1, 14 μl a solution of deoxyribose (Sigma) in PBS-1 and xanthine oxidase (Sigma). The final concentrations of the test compounds, ammonium iron (III) sulphate, xanthine, deoxyribose and xanthine oxidase were adjusted to be 360 μM, 36 μM, 70 μM, 700 μM and 0.7 unit/ml, respectively. If test compounds were not soluble in PBS-1 alone, aqueous sodium hydroxide solution or DMSO was added. The pH of the solution was adjusted to 7.4 to 7.8.
. The percent inhibition of the hydroxyl radical was calculated from the following equation (2) and the results are shown in Table 6. [formula] F1 : Intensity of fluorescence when a test compound was added. F2 : Intensity of fluorescence when a test compound was added but deoxyribose was not added.
F3 : Intensity of fluorescence when a test compound was not added.
F4 : Intensity of fluorescence when neither test compound nor deoxyribose was added.

Data set [3] deals with lipid peroxidation in murine brain homogenate. As to the kind of experiment: Inhibitory effects on metal ion-induced lipid peroxidation (murine brain homogenate). In kind it is biochemical, murine (C57 black mouse). The settings on record: 1 mM test compound; 100 μM ammonium iron (II) sulphate; 37° C., 30 minutes; pH 7.2 to 7.8. Here is the method: Test for Inhibitory Effects on Metal Ion-induced Lipid Peroxidation
(§2) The test was carried out according to the method described in Method in Enzymol., Vol. 52, page 302, 1978. A C57 black mouse was killed by cervical dislocation, and the whole brain extracted from the dissected head was washed with 20 mM phosphate buffer (hereinafter referred to as "PBS-2"). Then, the brain was added with PBS-2 in an amount of 19 times its wet weight, and the mixture was disrupted and homogenized with a homogenizer "Polytron" (manufactured by Kinematica). The thus prepared 5% solution of the murine brain homogenate in PBS-2 was diluted 1:5 with fresh PBS-2. To 800 μl of the resulting 1% solution of the murine brain homogenate in PBS-2 (protein content: 0.8 to 1.0 mg/ml) were successively added 100 μl of a PBS-2 solution of each of the test compounds shown in Table 7 below and 100 μl of an aqueous solution of ammonium iron (II) sulphate. The final concentration of the test compounds and ammonium iron (II) sulphate were adjusted to be 1 mM and 100 μM, respectively. If test compounds were not soluble in PBS-2 alone, an aqueous sodium hydroxide solution or DMSO was added. The pH of the solution was adjusted to 7.2 to 7.8.
The solution after heated at 37° C. for 30 minutes was added with 2.0 ml of an aqueous solution of thiobarbituric acid/trichloroacetic acid/hydrochloric acid, and the mixture was heated in a boiling water bath for 15 minutes. After ice-cooling, the solution was extracted with 1.0 ml of 1-butanol to prepare a sample for determining the peroxide lipid in the same way as described in Test Example 1.
as §1
A3 : Absorbance when a test compound was not added and heating at 37° C. for 30 minutes was not carried out.

For data set [4] the test system is unchanged. The data set is described as follows: Inhibitory effects on lipid peroxidation (murine brain homogenate). In kind it is biochemical, murine (C57 black mouse). The settings on record: 30 μM test compound; no added iron; 37° C., 60 minutes; pH 7.2 to 7.8. Here is the method:
as §2
Test for Inhibitory Effects on Lipid Peroxidation
To 900 μl of a 5% solution of the murine brain homogenate in PBS-2 prepared in the same way as described in Test Example 3 was added 100 μl of a PBS-2 solution of each of the test compounds shown in Table 8 below. The final concentration of the test compounds was adjusted to be 30 μM. If test compounds were not soluble in PBS-2 alone, an aqueous solution of sodium hydroxide or DMSO was added. The pH of the solution was adjusted to 7.2 to 7.8.
The solution after heated at 37° C. for 60 minutes was added with 1.0 ml of an aqeuous solution of thiobarbituric acid/trichloroacetic acid/hydrochloric acid, and the mixture was heated in a boiling water bath for 15 minutes. After ice-cooling, the solution was extracted with 2.0 ml of 1-butanol to prepare a sample for determining the lipid peroxide in the same way as described in Test Example 1. […] [formula] A4 : Absorbance when a test compound was added. A5 : Absorbance when a test compound was not added.
A6 : Abosrbance when a test compound was not added and heating at 37° C. for […] was not carried out.

Data set [5] deals with hydroxyl radical. The data set is described as follows: Inhibitory effects on hydroxyl radical formation (2) (iron (II)/hydrogen peroxide, DMPO, ESR). The settings on record: 306 μM test compound; 306 μM iron (II) sulphate; 75 mM DMPO; 306 μM hydrogen peroxide; ESR within 40 seconds. In kind it is biochemical. The procedure: Test for Inhibitory Effects on Hydroxyl Radical Formation (2)
To 75 μl of a solution of each of the test compounds shown in Table 9 below in 0.1M phosphate buffer (hereinafter referred to as "PBS-3") were successively added 75 μl of an aqueous solution of iron (II) sulphate, 20 μl of an aqueous solution of 5,5-dimethyl-1-pyrroline-N-oxide "DMPO" (manufactured by Dojin Chemical) and 75 μl of an aqueous solution of hydrogen peroxide. […] If test compounds were not soluble in PBS-3 alone, an aqueous sodium hydroxide solution or N,N-dimethyl formamide was added.
This solution was subjected to determination for the hydroxy radical immediately (within 40 seconds), using an electron spin resonance (ESR) meter "JES-FR80S" (manufactured by Nippon Denshi).
[formula] E1 : Signal magnitude when a test compound was added. E2 : Signal magnitude when a test compound was not added.

A short description of the next data set: UV absorptive activities. The format is physicochemical. The settings on record: 100 μM in ethanol (water or DMSO added if not soluble); for Maximum molar extinction coefficient: UVA and UVB regions. Here is the method: Test for UV Absorptive Activities
A solution of each of the test compounds shown in Table 10 below in ethanol was prepared for the final concentration to be 100 μM. If test compounds were not soluble in ethanol alone, water or DMSO was added.
The absorption spectrum of each sample was determined using a spectrophotometer "Model 320" (manufactured by Hitachi).

Regarding `O=C(O)C(CO)NCc1ccccc1O` (stereo not shown) [Synthesis Example 2], in data set [1], the “% Inhibition of UV-induced lipid peroxidation” value was determined as 59%. The “% Inhibition of hydroxyl radical” value with hydroxyl radical [2] came out at 29%. Also, the “% Inhibition of metal ion-induced lipid peroxidation” value in data set [3] was 41%. Also, in data set [4], the “% Inhibition of lipid peroxidation” value is 26%. Besides, in the data set on hydroxyl radical [5], the “% Inhibition of hydroxy radicals” value is listed as 44%.
For `O=C(O)[C@H](Cc1c[nH]cn1)NCc1ccccc1O` [Synthesis Example 1, N-(2-hydroxybenzyl)-L-histidine], in that order: 40%, 29%, 26%, 53% and 27%.
In the case of `Cc1ncc(CO)c(CNC(CO)C(=O)O)c1O` (stereo not shown) [Synthesis Example 18], the “% Inhibition of hydroxyl radical” value in the data set on hydroxyl radical [2] came to 42%. Also, in data set [3], the “% Inhibition of metal ion-induced lipid peroxidation” value stood at 26%. In addition, in data set [4], the “% Inhibition of lipid peroxidation” value worked out at 44%. Also, the “% Inhibition of hydroxy radicals” value with hydroxyl radical [5] is reported as 43%. Also, in “UV absorptive activities”, the “Wavelength (nm) of maximum absorption” value is on record as 290 nm and the “Maximum molar extinction coefficient” value is on record as 3,500.
Take `O=C(O)C(CO)N=Cc1c(O)ccc2ccccc12` (stereo not shown) [Synthesis Example 28]: in data set [1], the “% Inhibition of UV-induced lipid peroxidation” value is recorded as 20%. For the same molecule, in the data set on hydroxyl radical [2], the “% Inhibition of hydroxyl radical” value is reported as 19%. Also, the “% Inhibition of metal ion-induced lipid peroxidation” value in data set [3] is listed as 80%. Besides, the “% Inhibition of lipid peroxidation” value in data set [4] is 70%. In the data set with hydroxyl radical [5], the “% Inhibition of hydroxy radicals” value was determined as 56%. In the data set “UV absorptive activities”, the “Wavelength (nm) of maximum absorption” value was 307 nm and the “Maximum molar extinction coefficient” value is on record as 10,000.
On to `Cc1ncc(CO)c(C=N[C@@H](Cc2c[nH]cn2)C(=O)O)c1O` [Synthesis Example 68, N-pyridoxilidene-L-histidine-sodium salt], for which the “% Inhibition of hydroxyl radical” value with hydroxyl radical [2] was 15%. Further, the “% Inhibition of metal ion-induced lipid peroxidation” value in data set [3] was 15%. Further, the “% Inhibition of hydroxy radicals” value with hydroxyl radical [5] came to 10%. Besides, in the data set “UV absorptive activities”, the “Wavelength (nm) of maximum absorption” value came to 291 nm and the “Maximum molar extinction coefficient” value is recorded as 4,300.
